In patent publication US20160046616A1, “NRF2 SMALL MOLECULE INHIBITORS FOR CANCER THERAPY” (THE JOHNS HOPKINS UNIVERSITY, priority 2013, published 2016):
Where two headings read alike, the source gives them in different places.

What was measured:
[1] = tested on: A549 NRF2-ARE-Fluc stable cell line; test: A549 Nrf2 assay: NRF2-ARE firefly luciferase reporter gene assay; type: cell-based; settings: read-out: Potency of inhibition, A549
Description: A549, the parental cell line, is a non-small-cell lung cancer (NSCLC) cell line with loss-of-function (LOF) Keap1 activity, thus NRF2 transcription factor constitutively translocates into the nucleus to activate the expression of downstream target genes of NRF2. A firefly luciferase reporter (Fluc) construct driven by a minimal promoter of NRF2-specific anti-oxidant responsive element (ARE) is stably expressed in the A549 cells. Compounds that reduce the translocation of NRF2 into the nucleus or prevent the interaction between NRF2 and ARE will lead to a decrease in luciferase activity.
The final concentration of DMSO was maintained at 0.46%. Control compounds Budesonide and Staurosporine were both added at a concentration of 2 mM and Budesonide also was added as a 1:10 titration, starting at 200 μM, to achieve dose-response. After an 18-24 hour incubation at 37° C., 95% humidity, and 5% CO2, 1 μL of 5× CellTiter-Fluor non-lytic cell viability assay reagent (Promega, Madison, Wis.) was added into the each well of the plates. The plates were then incubated for 30 minutes at room temperature before they were read on a ViewLux plate imager (Perkin Elmer, Waltham, Mass.) using an excitation wavelength of 405 nm and an emission wavelength of 525 nm.
A cell based reporter assay approach was used for the identification of agents that could inhibit Nrf2 mediated gene expression (FIG. 1). A549-ARE-luciferase cells express the luciferase gene driven by a minimal promoter and an enhancer element containing an NRF2 binding site (Antioxidant Response Element, ARE).
(§1) Representative compounds were assayed to assess the potency of inhibition in an A549 NRF2-ARE-Fluc stable cell line (A549 Nrf2 assay), in an H838 NRF2-ARE-Fluc stable cell line (H838 Nrf2 assay), and in an H1437 NRF2-ARE-Fluc stable cell line (H1437 Nrf2 assay) (see Table 3).

[2] = tested on: H1437 NRF2-ARE-Fluc stable cell line; test: H1437 Nrf2 assay: NRF2-ARE firefly luciferase reporter gene assay; type: cell-based; settings: read-out: Potency of inhibition, H1437
Description: H1437 is another NSCLC cell line with LOF Keap1 activity and constitutive translocation of NRF2 into the nucleus. A firefly luciferase reporter construct driven by a minimal promoter of NRF2-specific ARE is stably expressed in the H1437 cells. This cell line was used as a confirmation assay to make sure hits identified from primary screening and that passed counterscreen assays worked in different cell types with a constitutively active NRF2 pathway (deficiency in Keap1).
This assay was very similar to the primary assay except that the cell line was changed. […] The final concentration of DMSO was maintained at 0.46%. Control compounds Budesonide and Staurosporine were both added at a concentration of 2 mM and Budesonide was also added as a 1:10 titration, starting at 200 μM, to achieve dose-response. After an 18-24 hour incubation at 37° C., 95% humidity, and 5% CO2, 1 μL of 5× CellTiter-Fluor non-lytic cell viability assay reagent (Promega, Madison Wis.) was added into the each well of the plates. The plates were then incubated for 30 minutes at room temperature before they were read on a ViewLux plate imager (Perkin Elmer, Waltham Mass.) using an excitation wavelength of 405 nm and an emission wavelength of 525 nm.
as §1

[3] = Homo sapiens, NCI-H1437, H1437 NRF2-ARE-Fluc stable cell line
[4] = H1437 NRF2-ARE-Fluc stable cell line

SMILES | IC50 ([1]; Homo sapiens) [µM] | IC50 [2, 3] [µM] | IC50 [2, 4] [µM] | IC50 [1] [µM]
O=C(Nc1ncc(Cc2ccc(C(F)(F)F)cc2)s1)c1ccn(-c2ccccc2)n1 [Compound 110] | < 5 | 5 to 25 |  | 
O=C(Nc1nc2cc(C(F)(F)F)ccc2s1)c1ccc(-c2cccc([N+](=O)[O-])c2)o1 [Compound 111] | > 25 | > 25 |  | 
COc1ccc(CC(=O)Nc2nc(-c3ccc4c(c3)CCN4C(=O)c3ccccc3C)c(C)s2)cn1 [Compound 112] | < 5 | < 5 |  | 
CCc1ccccc1C(=O)N1CCc2cc(-c3nc(NC(=O)Cc4ccc5c(c4)OCO5)sc3C)ccc21 [Compound 113] | < 5 | > 25 |  | 
Cc1sc(NC(=O)Cc2ccc3c(c2)OCO3)nc1-c1ccc2c(c1)CCN2C(=O)c1ccccc1OC(F)(F)F [Compound 114] | < 5 | > 25 |  | 
Cc1sc(NC(=O)Cc2ccc3c(c2)OCO3)nc1-c1ccc2c(c1)CCN2C(=O)c1ccccc1F [Compound 115] | < 5 | < 5 |  | 
Cc1sc(NC(=O)Cc2ccc3c(c2)OCO3)nc1-c1ccc2c(c1)CCN2C(=O)c1ccccc1Cl [Compound 116] | < 5 | > 25 |  | 
O=C(Nc1ncc(Cc2ccc(C(F)(F)F)cc2)s1)c1ccn(-c2cccc([N+](=O)[O-])c2)n1 [Compound 117] | < 5 | > 25 |  | 
O=C(Nc1ncc(Cc2ccc(C(F)(F)F)cc2)s1)c1c[nH]c(-c2ccccc2)n1 [Compound 118] | 5 to 25 | > 25 |  | 
COc1ccccc1C(=O)N1CCc2cc(-c3nc(NC(=O)Cc4ccc5c(c4)OCO5)sc3C)ccc21 [Compound 120] | < 5 | > 25 |  | 
Cc1sc(NC(=O)Cc2ccc3c(c2)OCO3)nc1-c1ccc2c(c1)CCN2C(=O)c1ccccc1C(F)(F)F [Compound 121] | < 5 | > 25 |  | 
Cc1ccccc1S(=O)(=O)N1CCc2cc(-c3nc(NC(=O)Cc4ccccc4F)sc3C)ccc21 [Compound 122] | < 5 | < 5 |  | 
Cc1ccccc1S(=O)(=O)N1CCc2cc(-c3nc(NC(=O)Cc4ccccc4Cl)sc3C)ccc21 [Compound 123] | < 5 | > 25 |  | 
Cc1ccccc1S(=O)(=O)N1CCc2cc(-c3nc(NC(=O)Cc4ccccn4)sc3C)ccc21 [Compound 127] | 5 to 25 | 5 to 25 |  | 
Cc1ccccc1S(=O)(=O)N1CCc2cc(-c3nc(NC(=O)Cc4ccccc4C(F)(F)F)sc3C)ccc21 [Compound 129] | < 5 | > 25 |  | 
Cc1ccccc1S(=O)(=O)N1CCc2cc(-c3nc(NC(=O)Cc4ccc(C(F)(F)F)cc4)sc3C)ccc21 [Compound 134] | < 5 | > 25 |  | 

Further lines, results first:

IC50 ([1]; Homo sapiens) [µM] | IC50 [2, 3] [µM] | IC50 [2, 4] [µM] | IC50 [1] [µM] | SMILES
< 5 |  | < 5 |  | Cc1ccccc1S(=O)(=O)N1CCc2cc(-c3nc(NC(=O)Cc4cccc(F)c4)sc3C)ccc21 [Compound 124]
< 5 | 5 to 25 |  |  | Cc1ccccc1S(=O)(=O)N1CCc2cc(-c3nc(NC(=O)Cc4cccc(Cl)c4)sc3C)ccc21 [Compound 125]
 |  | > 25 | < 5 | Cc1ccccc1S(=O)(=O)N1CCc2cc(-c3nc(NC(=O)Cc4cccc(F)c4)sc3C)ccc21 [Compound 126]
< 5 | < 5 |  |  | Cc1ccccc1CC(=O)Nc1nc(-c2ccc3c(c2)CCN3S(=O)(=O)c2ccccc2C)c(C)s1 [Compound 128]
< 5 | < 5 |  |  | Cc1ccccc1S(=O)(=O)N1CCc2cc(-c3nc(NC(=O)Cc4cccnc4)sc3C)ccc21 [Compound 130]
5 to 25 | 5 to 25 |  |  | Cc1cccc(CC(=O)Nc2nc(-c3ccc4c(c3)CCN4S(=O)(=O)c3ccccc3C)c(C)s2)c1 [Compound 131]
5 to 25 | 5 to 25 |  |  | Cc1ccccc1S(=O)(=O)N1CCc2cc(-c3nc(NC(=O)Cc4cccc(C(F)(F)F)c4)sc3C)ccc21 [Compound 132]
< 5 | > 25 |  |  | Cc1ccc(CC(=O)Nc2nc(-c3ccc4c(c3)CCN4S(=O)(=O)c3ccccc3C)c(C)s2)cc1 [Compound 133]
